Data published in patent publication US11161831B2, “Methods and compositions for treatment of muscle wasting, muscle weakness, and/or cachexia” (Baylor College of Medicine, priority 2013, dated 2021).

Test system: C2Cl2 myotubes
Experiment: C2Cl2 myotubes treated with IL-6
Assay type: cell-based, mouse
Procedure: FIG. 22A. Representative western blots from C2Cl2 myotubes treated with IL-6 (100 ng/ml) for different times (left panel). Fold-changes in the densities of proteins corrected for GAPDH at different times calculated from values at time zero (right panel), n=3 repeats; *p<0.05 vs. time zero. FIG. 22B. C2Cl2 myotubes were infected with a lentivirus expressing constitutively active Stat3 (Stat3C-GFP). A representative western blot for the indicated proteins is shown. FIG. 22C. C2Cl2 myotubes were treated with or without C188-9 for 2 h before adding IL-6 (100 ng/ml) for 24 h. A representative western blot for the indicated proteins is shown. FIG. 22D. C2Cl2 myoblasts were co-transfected with a plasmid expressing C/EBPδ promoter-driven luciferase, Renila plus a lentivirus expressing Stat3C-GFP and treated with or without IL-6. Dual luciferase activity was measured (n=3 repeats; *p<0.05 vs respective GFP control). FIG. 22E. C2Cl2 myoblasts were transfected with control siRNA or C/EBPδ siRNA and after differentiation to myotubes were treated with or without IL-6. Representative western blots of Stat3, C/EBPδ and myostatin are shown. FIG. 22F. C2Cl2 myoblasts were co-transfected with a plasmid expressing the myostatin promoter-driven luciferase plus plasmids (cDNA3 control, Stat3C, C/EBPδ, C/EBPδ siRNA or Stat3C plus C/EBPδ siRNA) and treated with or without IL6. Luciferase activity was measured (n=3 repeats; *p<0.05 vs. cDNA3 CTRL). FIG. 22G. C2Cl2 myoblasts were transfected with lentivirus expressing a siRNA to myostatin. […] In these cells, protein degradation (upper panel; n=6 repeats, #p<0.05 vs GFP control, *p<0.05 vs siRNA CTRL) was measured.
C2Cl2 myotubes were treated with or without C188-9 for 1 or 24 h and RT-PCR was used to assess mRNA levels. […]
C2Cl2 myotubes were treated with C188-9, a Stat3 inhibitor, for 2 h before adding IL-6 (100 ng/ml) for 24 h. Myotube sizes were measured (mean±SEM; n=3 independent experiments; *, p<0.05 vs. untreated myotubes).
C2Cl2 myoblasts (ATCC, Manassas, Va.) were grown in high glucose Dulbecco's Modified Eagle's Medium (DMEM) supplemented with 10% FBS, 100 U/ml penicillin, […], […] sodium pyruvate and 2 mM L-glutamine. […] Myotube sizes were evaluated by NIS-element software. […] Alternatively, 2 μg plasmids expressing Stat3C or C/EBPδ or C/EBPδ promoter- or myostatin promoter-reporter luciferase construct were trasfected (control, Renilla) and luciferase activities was measured using the Promega assay (Madison, Wis.).
Muscle samples (1 mg per 10 μl of RIPA buffer) or C2Cl2 myotubes were homogenized in RIPA buffer containing Complete Mini Protease Inhibitor and PhosStop Phosphatase Inhibitor (Roche Applied Science, Indianapolis, Ind.). […] The band density of target proteins was quantified using NIH ImageJ Software.

[1] = C188-9 2 h before IL-6 100 ng/ml for 24 h

SMILES: COc1ccc(S(=O)(=O)Nc2cc(-c3c(O)ccc4ccccc34)c(O)c3ccccc23)cc1 [C188-9]
- IL-6-induced increase in p-Stat3, C/EBPδ and myostatin [1]: blocked these responses
- decrease in myotubes size induced by IL-6 [1]: prevented the decrease
- C/EBPδ and myostatin mRNAs (IL-6-treated C2Cl2 myotubes): suppressed
- p-Akt (IL-6-treated C2Cl2 myotubes): increased p-Akt
